# From US7179941B2, “Carbonylamino-substituted acyl phenyl urea derivatives, process for their preparation and their use” (Sanofi-Aventis Deutschland GmbH, priority 2003, dated 2007)
# Assays:
# [1] = biological target: T1, human glycogen phosphorylase a (Homo sapiens, UniProt P06737); test: Glycogen phosphorylase a activity test; format: biochemical; conditions: 10 μM test substance; GPa measured in reverse direction (glycogen synthesis from glucose 1-phosphate)
# T1 sequence (P06737 1-847): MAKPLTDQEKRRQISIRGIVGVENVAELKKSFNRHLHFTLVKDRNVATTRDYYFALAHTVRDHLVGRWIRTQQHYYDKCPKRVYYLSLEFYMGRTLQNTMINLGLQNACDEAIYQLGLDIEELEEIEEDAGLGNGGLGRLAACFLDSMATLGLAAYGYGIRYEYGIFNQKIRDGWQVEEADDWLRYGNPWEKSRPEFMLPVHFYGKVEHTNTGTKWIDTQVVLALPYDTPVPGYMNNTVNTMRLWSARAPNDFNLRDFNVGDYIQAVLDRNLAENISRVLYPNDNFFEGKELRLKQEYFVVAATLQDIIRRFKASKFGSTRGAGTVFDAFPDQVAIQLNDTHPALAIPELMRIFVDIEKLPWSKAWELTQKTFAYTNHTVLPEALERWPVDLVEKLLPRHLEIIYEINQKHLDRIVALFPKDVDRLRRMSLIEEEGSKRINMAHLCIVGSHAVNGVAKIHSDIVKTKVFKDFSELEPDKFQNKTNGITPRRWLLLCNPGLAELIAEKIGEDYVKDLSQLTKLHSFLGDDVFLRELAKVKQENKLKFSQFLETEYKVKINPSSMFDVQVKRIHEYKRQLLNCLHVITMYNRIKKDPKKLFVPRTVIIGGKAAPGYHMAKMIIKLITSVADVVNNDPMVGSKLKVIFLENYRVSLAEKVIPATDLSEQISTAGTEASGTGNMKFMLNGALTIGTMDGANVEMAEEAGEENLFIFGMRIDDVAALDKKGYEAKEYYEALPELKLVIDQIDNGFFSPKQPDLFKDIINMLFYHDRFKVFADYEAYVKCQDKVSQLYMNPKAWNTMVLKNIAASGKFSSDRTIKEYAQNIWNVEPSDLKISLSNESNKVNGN
# Experimental: Glycogen Phophorylase a Activity Test
# The effect of compounds on the activity of the active form of glycogen phosphorylase (GPa) was measured in the reverse direction by monitoring the synthesis of glycogen from glucose 1-phosphate by determining the release of inorganic phosphate. All reactions were carried out as duplicate determinations in 96-well microtiter plates (half area plates, Costar No. 3696), and the change in absorption as a consequence of the formation of the reaction product was measured at the wavelength specified below in a Multiskan Ascent Elisa Reader (Lab Systems, Finland).
# In order to measure the GPa enzyme activity in the reverse direction, the conversion of glucose 1-phosphate to glycogen and inorganic phosphate was measured by the general method of Engers et al. (Engers HD, Shechosky S, Madsen NB, Can J Biochem 1970 July;48(7):746–754) with the following modifications: human glycogen phosphorylase a (for example containing 0.76 mg of protein/ml (Aventis Pharma Deutschland GmbH), dissolved in buffer solution E (25 mM P-glycerophosphate, pH 7.0, 1 mM EDTA and 1 mM dithiotreitol) was diluted to a concentration of 10 μg of protein/ml with buffer T (50 mM Hepes, pH 7.0, 100 mM KCl, 2.5 mM EDTA, 2.5 mM MgCl2.6H2O) and addition of 5 mg/ml of glycogen. Test substances were prepared as a 10 mM solution in DMSO and diluted to 50 μM with buffer solution T. To 10 μl of this solution were added 10 μl of 37.5 mM glucose dissolved in buffer solution T and 5 mg/ml of glycogen, and also 10 μl of a solution of human glycogen phosphorylase a (10 μg of protein/ml) and 20 μl of 2.5 mM glucose 1-phosphate. The base value of the activity of glycogen phosphorylase a in the absence of test substance was determined by adding 10 μl of buffer solution T (0.1% DMSO). The mixture was incubated at room temperature for 40 minutes and the released inorganic phosphate was determined by means of the general method of Drueckes et al. (Drueckes P, Schinzel R, Palm D, Anal Biochem 1995 Sep. 1;230(1):173–177) with the following modifications: 50 μl of a stop solution of 7.3 mM of ammonium molybdate, 10.9 mM of zinc acetate, 3.6% of ascorbic acid, 0.9% of SDS are added to 50 μl of the enzyme mixture. After 60 minutes of incubation at 45° C., the absorption was measured at 820 nm. To determine the background absorption, the stop solution was added immediately after the addition of the glucose 1-phosphate solution in a separate reaction.
# [2] = biological target: T1, human glycogen phosphorylase a; test: Glycogen phosphorylase a activity test; format: biochemical; conditions: read-out: inhibition at a concentration of 100 μM
SMILES,% Inhibition at 10 μM [1],other results
"O=C(O)C(=O)Nc1ccccc1C(=O)O [Comparative Example A, reference compound]",no inhibition,inhibition at 100 µM [2]: 11%
C#CCCC(=O)Nc1ccc(OC)c(NC(=O)NC(=O)c2cc(F)c(F)cc2Cl)c1 [Example 57],99%,–
COc1ccc(NC(=O)CN(C)C)cc1NC(=O)NC(=O)c1cc(F)c(F)cc1Cl [Example 58],99%,–
CCOCC(=O)Nc1ccc(OC)c(NC(=O)NC(=O)c2cc(F)c(F)cc2Cl)c1 [Example 59],103%,–
C#CCC(=O)Nc1ccc(OC)c(NC(=O)NC(=O)c2cc(F)c(F)cc2Cl)c1 [Example 60],103%,–
COc1ccc(NC(=O)C(F)F)cc1NC(=O)NC(=O)c1cc(F)c(F)cc1Cl [Example 61],100%,–
COc1ccc(NC(=O)CO)cc1NC(=O)NC(=O)c1cc(F)c(F)cc1Cl [Example 62],101%,–
"CC(=O)Nc1ccc(OC(F)(F)F)c(NC(=O)NC(=O)c2cc(F)c(F)cc2Cl)c1 [Example 64, N-{3-[3-(2-Chloro-4,5-difluorobenzoyl)ureido]-4-trifluoromethoxyphenyl}acetamide]",–,inhibition at 10 µM [1]: 101%
COC(=O)C(=O)Nc1ccc(OC(F)(F)F)c(NC(=O)NC(=O)c2cc(F)c(F)cc2Cl)c1 [Example 65],98%,–
COC(=O)CC(=O)Nc1ccc(OC(F)(F)F)c(NC(=O)NC(=O)c2cc(F)c(F)cc2Cl)c1 [Example 66],100%,–
COC(=O)CCC(=O)Nc1ccc(OC(F)(F)F)c(NC(=O)NC(=O)c2cc(F)c(F)cc2Cl)c1 [Example 67],101%,–
O=C(NC(=O)c1cc(F)c(F)cc1Cl)Nc1cc(NC(=O)C(=O)O)ccc1OC(F)(F)F [Example 68],101%,–
O=C(O)CC(=O)Nc1ccc(OC(F)(F)F)c(NC(=O)NC(=O)c2cc(F)c(F)cc2Cl)c1 [Example 69],100%,–
O=C(O)CCC(=O)Nc1ccc(OC(F)(F)F)c(NC(=O)NC(=O)c2cc(F)c(F)cc2Cl)c1 [Example 70],99%,–
CC(=O)Nc1ccc(N(C)C)c(NC(=O)NC(=O)c2cc(F)c(F)cc2Cl)c1 [Example 71],97%,–
CCN(CC)c1ccc(NC(C)=O)cc1NC(=O)NC(=O)c1cc(F)c(F)cc1Cl [Example 72],96%,–

SMILES,% Inhibition at 10 μM [1],other results
"CC(=O)Nc1ccc(N2CCCC2)c(NC(=O)NC(=O)c2cc(F)c(F)cc2Cl)c1 [Example 73, N-{3-[3-(2-Chloro-4,5-difluorobenzoyl)ureido]-4-pyrrolidin-1-ylphenyl}acetamide]",–,inhibition at 10 µM [1]: 97%
COC(=O)CC(=O)Nc1ccc(N(C)C)c(NC(=O)NC(=O)c2cc(F)c(F)cc2Cl)c1 [Example 74],98%,–
COC(=O)CC(=O)Nc1ccc(N2CCCC2)c(NC(=O)NC(=O)c2cc(F)c(F)cc2Cl)c1 [Example 75],100%,–
CN(C)c1ccc(NC(=O)CC(=O)O)cc1NC(=O)NC(=O)c1cc(F)c(F)cc1Cl [Example 76],99%,–
O=C(O)CC(=O)Nc1ccc(N2CCCC2)c(NC(=O)NC(=O)c2cc(F)c(F)cc2Cl)c1 [Example 77],98%,–
O=C(O)CCC(=O)Nc1cccc(NC(=O)NC(=O)c2ccc(Cl)cc2Cl)c1 [Example 78],86%,–
NCCCC(=O)Nc1cccc(NC(=O)NC(=O)c2ccc(Cl)cc2Cl)c1 [Example 79],80%,–
CC(=O)Nc1ccc(Cl)c(NC(=O)NC(=O)c2ccc(Cl)cc2Cl)c1.O=C(O)C(F)(F)F [Example 80],98%,–
O=C(O)CCC(=O)Nc1ccc(Cl)c(NC(=O)NC(=O)c2ccc(Cl)cc2Cl)c1 [Example 81],97%,–
COc1ccc(NC(C)=O)cc1NC(=O)NC(=O)c1ccc(Cl)cc1Cl [Example 82],102%,–
COc1ccc(NC(=O)CCC(=O)O)cc1NC(=O)NC(=O)c1ccc(Cl)cc1Cl [Example 83],103%,–
O=C(O)CCC(=O)Nc1ccc(Cl)c(NC(=O)NC(=O)c2cc(F)c(F)cc2Cl)c1 [Example 84],100%,–
CC(=O)Nc1ccc(Cl)c(NC(=O)NC(=O)c2cc(F)c(F)cc2Cl)c1 [Example 85],98%,–
O=C(O)CC(=O)Nc1ccc(Cl)c(NC(=O)NC(=O)c2cc(F)c(F)cc2Cl)c1 [Example 86],95%,–
COC(=O)C(=O)Nc1ccc(Cl)c(NC(=O)NC(=O)c2cc(F)c(F)cc2Cl)c1 [Example 87],96%,–
O=C(NC(=O)c1cc(F)c(F)cc1Cl)Nc1cc(NC(=O)C(=O)O)ccc1Cl [Example 88],97%,–
